The subject of the assay is YAP. Nature of the assay: YAP phosphorylation inhibitory action in SKOV3 (HTRF). The note with it: 10 μM, 1 hr, non-treatment 100%. It counts as cell-based, human. The protocol:
Human ovarian cancer cell line SKOV3 (manufactured by DS Pharma Biomedical Co., Ltd.) was precultured using a 15% FBS-containing McCoy's 5a medium (manufactured by Sigma-Aldrich) (single layer culture). The above-mentioned cells in the logarithmic growth phase were washed with PBS. A 0.25% (w/v) trypsin-1 mmol/L ethylenediaminetetraacetic acid (EDTA) solution (manufactured by FUJIFILM Wako Pure Chemical Corporation) was added and the adherent cells were incubated at 37° C. for 3 min and detached. The above-mentioned medium was added, and the cells were centrifuged and resuspended in the same medium.
According to the method of patent document 1 (WO 2014/017513), a composition of 10% FBS-containing DMEM medium (Phenol-red free, manufactured by FUJIFILM Wako Pure Chemical Corporation) containing 0.015% (w/v) deacylated gellan gum (KELCOGEL CG-LA, manufactured by SANSHO Co., Ltd.) was prepared using FCeM-series Preparation Kit (manufactured by FUJIFILM Wako Pure Chemical Corporation). Then, various cells prepared above were suspended in the above-mentioned medium composition (3D culture conditions) added with deacylated gellan gum or a medium without the addition (2D culture conditions), and seeded on a 50 μL/well (manufactured by Corning Incorporated, a 96 well flat bottom plate, #3585, 2D culture conditions) or 25 μL/well (manufactured by Corning Incorporated, 96 well low adhesion flat bottom plate, #3474) at 100000 cells/well. The plate was allowed to stand at 37° C. in a 5% CO2 incubator, and the compound of the present invention diluted with the medium at 2 or 6 times the final concentration, DMSO, or the medium alone was added to the plate 3 hr after the seeding at 50 μL/well (2D culture conditions) or 5 μL/well (3D culture conditions) to make the final concentration of each compound 10 μM. After culture at 37° C. in a 5% CO2 incubator for 1 hr, the supernatant was aspirated, supplemented Lysis buffer (1-fold concentration, manufactured by Cisbio, YAP-total kit or YAP phospho-S27 kit) (50 μL) was added under 2D culture conditions, and supplemented Lysys buffer (4-fold concentration) (10 μL) was added to the culture supernatant under 3D conditions, and the mixture was stirred by a plate shaker for 30 min. Thereafter, the plate was centrifuged, 16 μL of the supernatant was transferred to a 384-well white plate (Corning, #4512), and each antibody solution (pYAP d2 antibody or Total-YAP d2 antibody, and pYAP Cryptate antibody or Total-YAP Cryptate antibody) included in the kit was added at 4 μL/well in total, and the mixture was allowed to stand at room temperature overnight. As a blank control, pYAP Cryptate antibody or Total-YAP Cryptate antibody alone was added to cells free of stimulation with compound and the mixture was treated in the same manner. The next day, the wavelengths at 665 nm and 615′ nm were measured in the HTRF mode of EnVision (manufactured by PerkinElmer).
The obtained signal was calculated as follows. Ratio=signal (665 nm)/signal (615 nm)×10000, ΔR=Signal(Ratio)−Background fluorescence, and the relative phosphorylated YAP amount or total YAP amount for each compound when ΔR of the compound non-addition group (non-treatment) is 100% is shown in Tables 7 and 8 (2D culture), and Tables 9 and 10 (3D culture). From the results, it was shown that the compound of the present zo invention has a YAP phosphorylation inhibitory action under both 2D and 3D culture conditions.
A general note: TR-FRET usually uses a lanthanide donor and a delayed reading to cut background.

These results are taken from patent US20220144775A1, “HYDRAZIDE COMPOUND AND KINASE INHIBITOR” (NISSAN CHEMICAL CORPORATION, priority 2019, published 2022).

Consider `CC/C(=N\NC(=O)C(C)Nc1cncc(F)c1)c1ccc(O)c(C)c1O` (centres unmarked) [A-007], for which, where the note is “2D culture conditions”, the “phosphorylated YAP amount (%)” value stood at 16% and the “total YAP amount (%)” value is listed as 91%. Also, for the setting “3D culture conditions”, the “phosphorylated YAP amount (%)” value is 21% and the “total YAP amount (%)” value was 96%.

With `CC/C(=N\NC(=O)C(C)Nc1cccnc1)c1ccc(O)c(C)c1O` (centres unmarked) [A-004, (E)-N′-(1-(2,4-dihydroxy-3-methylphenyl)propylidene)-2-(pyridin-3-ylamino)propanehydrazide], the “phosphorylated YAP amount (%)” value stood at 19% (2D culture conditions) and 33% (3D culture conditions). Further, the “total YAP amount (%)” value by setting is: (2D culture conditions) 87%; (3D culture conditions) 105%.
